Data taken from patent US10174033B2, “N6-substituted adenosine derivatives and N6-substituted adenine derivatives and uses thereof” (INSTITUTE OF MATERIA MEDICA, CHINESE ACADEMY OF MEDICAL …, priority 2009, dated 2019).

These molecules were tested on male ICR-mice (assay: Potentiation of sodium pentobarbital sleeping time test). Conditions: intraperitoneal, 1 mg/kg, 38 mg/kg sodium pentobarbital 30 min later.
Format: in vivo
Procedure: Effects of N^6-substituted adenosine derivatives and/or N^6-substituted adenine derivatives on sodium pentobarbital-induced sleeping time in mice.
Name of Experiment: Potentiation of sodium pentobarbital sleeping time test.
Method of Experiment: Groups of 8-10 male ICR-mice with an average weight of 18-22 g were used. They were dosed orally or i.p. with the test compound or the vehicle. Thirty min after i.p. injection or 60 min after oral dosing 38 mg/kg sodium pentobarbital were injected intravenously. The latency and duration of sleep (loss of righting reflex) were recorded. The percentage of prolongation of sleeping time was calculated as: [(sleeping time of experimental group)−(sleeping time of control group)]/(sleeping time of control group)×100%.

**Q.** With `Cc1cccc(CNc2ncnc3c2ncn3[C@@H]2O[C@H](CO)[C@@H](O)[C@H]2O)c1` [Example 5, N^6-(m-methylbenzyl)-adenosine] as the molecule, how does the “Sleep prolonging rate (%)” value read?
**A.** 84%

**Q.** Which “Sleep prolonging rate (%)” value does the source give for `Nc1ccc(CNc2ncnc3c2ncn3[C@@H]2O[C@H](CO)[C@@H](O)[C@H]2O)cc1` [Example 6, N^6-(p-aminobenzyl)-adenosine] here?
**A.** 165%

Same assay, conditions: intraperitoneal, 5 mg/kg, 38 mg/kg sodium pentobarbital 30 min later

**Q.** With `O=C(O)[C@@H]1CCCN1c1ncnc2c1ncn2[C@@H]1O[C@H](CO)C(O)C1O` (stereo partly shown) [Example 118, N-(6-adenosine)-(L)-proline] as the molecule, how does the “Sleep prolonging rate (%)” value read?
**A.** 29%

**Q.** Which “Sleep prolonging rate (%)” value does the source give for `O=C(O)[C@H](Cc1ccccc1)Nc1ncnc2c1ncn2[C@@H]1O[C@H](CO)C(O)C1O` (stereo partly shown) [Example 102, N-(6-adenosine)-(L)-phenylalanine] here?
**A.** 44%

**Q.** With `OC[C@H]1O[C@@H](n2cnc3c(NCc4cccs4)ncnc32)[C@H](O)[C@@H]1O` [Example 19, N^6-(2-thiopheneylmethyl)-adenosine] as the molecule, how does the “Sleep prolonging rate (%)” value read?
**A.** 12%

**Q.** Which “Sleep prolonging rate (%)” value does the source give for `Cc1ccc(CNc2ncnc3c2ncn3[C@@H]2O[C@H](CO)[C@@H](O)[C@H]2O)o1` [Example 18, N^6-(5-methyl-2-furanylmethyl)-adenosine] here?
**A.** 7%

Same assay, conditions: oral, 2.5 mg/kg, 38 mg/kg sodium pentobarbital 60 min later

**Q.** With `CC(Nc1ncnc2c1ncn2[C@@H]1O[C@H](CO)[C@@H](O)[C@H]1O)c1ccc(N)cc1` (mixture of isomers) [Example 48, N^6-[(±)-1-(4-aminophenyl)-ethyl]-adenosine] as the molecule, how does the “Sleep prolonging rate (%)” value read?
**A.** 132%

**Q.** How did the “Sleep prolonging rate (%)” value turn out when `CCC(Nc1ncnc2c1ncn2[C@@H]1O[C@H](CO)[C@@H](O)[C@H]1O)c1ccc(OC)cc1` (mixture of isomers) [Example 74, N^6-[(±)-1-(4-methoxyphenyl)-propyl]-adenosine] was run?
**A.** 86%

**Q.** With `CC[C@@H](Nc1ncnc2c1ncn2[C@@H]1O[C@H](CO)[C@@H](O)[C@H]1O)c1ccccc1` [Example 75, N^6-[(R)-1-(phenyl)-propyl]-adenosine] as the molecule, how does the “Sleep prolonging rate (%)” value read?
**A.** 183%

**Q.** How did the “Sleep prolonging rate (%)” value turn out when `CCC(Nc1ncnc2c1ncn2[C@@H]1O[C@H](CO)[C@@H](O)[C@H]1O)c1ccccc1` (mixture of isomers) [Example 72, N^6-[(±)-1-(phenyl)-propyl]-adenosine] was run?
**A.** 135%

Same assay, conditions: oral, 5 mg/kg, 38 mg/kg sodium pentobarbital 60 min later

**Q.** How did the “Sleep prolonging rate (%)” value turn out when `CCCCCCCC(=O)OC[C@H]1O[C@@H](n2cnc3c(NC(C)c4cc(OC)c(OC)c(OC)c4)ncnc32)[C@H](O)[C@@H]1O` (mixture of isomers) [Example 53, N^6-[(±)-1-(3,4,5-trimethoxyphenyl)-ethyl]-adenosine-5′-caprylate] was run?
**A.** 130%

**Q.** Which “Sleep prolonging rate (%)” value does the source give for `C[C@H](Nc1ncnc2c1ncn2[C@@H]1O[C@H](CO)[C@@H](O)[C@H]1O)c1ccc(F)cc1` [Example 71, N^6-[(S)-1-(4-fluorophenyl)-ethyl]-adenosine] here?
**A.** 24%

**Q.** Which “Sleep prolonging rate (%)” value does the source give for `OC[C@@H](Nc1ncnc2c1ncn2[C@@H]1O[C@H](CO)[C@@H](O)[C@H]1O)c1ccccc1` [Example 64, N^6-[(L)-2-(hydroxy)-1-(phenyl)-ethyl]-adenosine] here?
**A.** 67%

**Q.** With `CCCOC[C@H]1O[C@@H](n2cnc3c(N[C@@H](CC)c4ccccc4)ncnc32)C(O)C1O` (stereo partly drawn) [Example 83, N^6-[(S)-1-(phenyl)-propyl]-adenosine-5′-propyl ether] as the molecule, how does the “Sleep prolonging rate (%)” value read?
**A.** 4%

**Q.** With `OCCN(Cc1ccccc1)c1ncnc2c1ncn2[C@@H]1O[C@H](CO)[C@@H](O)[C@H]1O` [Example 138, N^6-(2-hydroxyethyl)-N^6-benzyl-adenosine] as the molecule, how does the “Sleep prolonging rate (%)” value read?
**A.** 18%

**Q.** How did the “Sleep prolonging rate (%)” value turn out when `COc1cc(C(C)Nc2ncnc3c2ncn3[C@H]2C[C@H](O)[C@@H](CO)O2)cc(OC)c1OC` (mixture of isomers) [Example 157, N^6-[(±)-1-(3,4,5-trimethoxyphenyl)-ethyl]-2′-deoxy-adenosine] was run?
**A.** 9%

**Q.** For `OC[C@H]1O[C@@H](n2cnc3c(NC(Cc4ccccc4)c4ccccc4)ncnc32)C(O)C1O` (mixture of isomers) [Example 94, N^6-[(±)-1-(1,2-diphenyl)-ethyl]-adenosine], which “Sleep prolonging rate (%)” value is on record?
**A.** 36%

**Q.** Which “Sleep prolonging rate (%)” value does the source give for `CCN(Cc1ccccc1)c1ncnc2c1ncn2[C@@H]1O[C@H](CO)[C@@H](O)[C@H]1O` [Example 134, N^6-ethyl-N^6-benzyl-adenosine] here?
**A.** 7%

**Q.** How did the “Sleep prolonging rate (%)” value turn out when `CCCC(=O)OC[C@H]1O[C@@H](n2cnc3c(NCc4ccc(OC(=O)CCC)c(OC)c4)ncnc32)[C@@H](O)C1O` (stereo partly shown) [N^6-(3-methoxy-4-butanoyloxy-benzyl)-adenosine-5′-butyrate] was run?
**A.** 11%

**Q.** With `Cc1ccc([C@H](C)Nc2ncnc3c2ncn3[C@@H]2O[C@H](CO)[C@@H](O)[C@H]2O)cc1` [Example 60, N^6-[(S)-1-(4-methylphenyl)-ethyl]adenosine] as the molecule, how does the “Sleep prolonging rate (%)” value read?
**A.** 19%

**Q.** “N^6-[(±)-1-(3,4,5-trimethoxyphenyl)-ethyl]-adenosine-5′-decanoic ether [Example 56]” was tested. Which “Sleep prolonging rate (%)” value did it give?
**A.** 2%

**Q.** With `CC(=O)OC[C@H]1O[C@@H](n2cnc3c(NCc4ccc5c(c4)OCO5)ncnc32)C[C@H]1OC(C)=O` [Example 154, N^6-(3,4-methylenedioxy-benzyl)-3′,5′-diacetyl-2′-deoxyadenosine] as the molecule, how does the “Sleep prolonging rate (%)” value read?
**A.** 29%

**Q.** For `CC[C@@H](Nc1ncnc2[nH]cnc12)c1ccccc1` [Example 144, N^6-[(R)-1-(phenyl)-propyl]-adenine], which “Sleep prolonging rate (%)” value is on record?
**A.** 42%

**Q.** `CCC[C@@H](Nc1ncnc2c1ncn2[C@@H]1O[C@H](CO)C(O)C1O)c1ccccc1` (stereo partly drawn) [Example 89, N^6-[(R)-(phenyl)-butyl]-adenosine] was tested. Which “Sleep prolonging rate (%)” value did it give?
**A.** 163%

**Q.** How did the “Sleep prolonging rate (%)” value turn out when `OC[C@H]1O[C@@H](n2cnc3c(N[C@H](c4ccccc4)[C@@H](O)c4ccccc4)ncnc32)C(O)C1O` (stereo partly drawn) [Example 99, N^6-{(1S,2R)-[2-hydroxy-(1,2-diphenyl)]-ethyl}-adenosine] was run?
**A.** 46%

**Q.** How did the “Sleep prolonging rate (%)” value turn out when `C[C@H]([C@@H](O)c1ccccc1)N(C)c1ncnc2c1ncn2[C@@H]1O[C@H](CO)C(O)C1O` (stereo partly drawn) [Example 135, N^6-methyl-N^6-[2-(1S,2R)-(1-hydroxy-1-phenyl)-propyl]-adenosine] was run?
**A.** 39%

**Q.** How did the “Sleep prolonging rate (%)” value turn out when `CCCCCCCCCCCC(=O)OCC1OC(n2cnc3c(NCc4ccc(OC(=O)CCCCCCCCCCC)c(OC)c4)ncnc32)C2OC(C)(C)OC12` (stereo not shown) [Example 25, N^6-(3-methoxy-4-lauroyloxybenzyl)-2′,3′-O-isopropylidene-adenosine-5′-laurate] was run?
**A.** 27%

**Q.** `CCOC(=O)[C@@H](Cc1c[nH]c2ccccc12)Nc1ncnc2c1ncn2[C@@H]1O[C@H](CO)C(O)C1O` (stereo partly shown) [Example 114, N-(6-adenosine)-(D)-tryptophan ethyl ester] was tested. Which “Sleep prolonging rate (%)” value did it give?
**A.** 16%

**Q.** For `CCCC(Nc1ncnc2c1ncn2[C@@H]1O[C@H](CO)[C@@H](O)[C@H]1O)c1ccccc1` (mixture of isomers) [Example 87, N^6-[(±)-1-(phenyl)-butyl]-adenosine], which “Sleep prolonging rate (%)” value is on record?
**A.** 57%

**Q.** `Nc1ccc(CNc2ncnc3c2ncn3[C@@H]2O[C@H](CO)[C@@H](O)[C@H]2O)cc1` [Example 6, N^6-(p-aminobenzyl)-adenosine] was tested. Which “Sleep prolonging rate (%)” value did it give?
**A.** 171%

**Q.** For `CCCOC[C@H]1O[C@@H](n2cnc3c(N[C@H](CC)c4ccccc4)ncnc32)C(O)C1O` (stereo partly drawn) [Example 86, N^6-[(R)-1-(phenyl)-propyl]-adenosine-5′-propyl ether], which “Sleep prolonging rate (%)” value is on record?
**A.** 318%

**Q.** `CC[C@@H](Nc1ncnc2c1ncn2[C@@H]1O[C@H](COC(C)=O)C(OC(C)=O)C1OC(C)=O)c1ccccc1` (stereo partly drawn) [Example 76, N^6-[(R)-1-(phenyl)-propyl]-adenosine-2′,3′,5′-triacetate] was tested. Which “Sleep prolonging rate (%)” value did it give?
**A.** 339%

**Q.** With `CC[C@@H](Nc1ncnc2c1ncn2[C@@H]1O[C@H](COc2ccccc2[N+](=O)[O-])C(O)[C@@H]1O)c1ccccc1` (stereo partly drawn) [Example 85, N^6-[(R)-1-(phenyl)-propyl]-adenosine-5′-o-nitrophenyl ether] as the molecule, how does the “Sleep prolonging rate (%)” value read?
**A.** 87%

**Q.** For `C[C@@H](Nc1ncnc2[nH]cnc12)c1ccccc1` [Example 142, N^6-[(R)-1-(phenyl)-ethyl]-adenine], which “Sleep prolonging rate (%)” value is on record?
**A.** 21%

**Q.** For `OC[C@H]1O[C@@H](n2cnc3c(N[C@@H](c4ccccc4)[C@H](O)c4ccccc4)ncnc32)C(O)C1O` (stereo partly drawn) [Example 100, N^6-{(1R,2S)-[2-hydroxy-(1,2-diphenyl)]-ethyl}-adenosine], which “Sleep prolonging rate (%)” value is on record?
**A.** 38%

**Q.** Which “Sleep prolonging rate (%)” value does the source give for `CC[C@@H](Nc1ncnc2c1ncn2C1CCCO1)c1ccccc1` (stereo partly drawn) [Example 146, N^6-[(R)-1-(phenyl)-propyl]-N^9-(tetrahydrofuran-2-yl)-adenine] here?
**A.** 2%

**Q.** For `CCCC(Nc1ncnc2c1ncn2[C@@H]1O[C@H](CO)[C@@H](O)[C@H]1O)c1ccc(OC)cc1` (mixture of isomers) [Example 88, N^6-[(±)-1-(4-methoxyphenyl)-butyl]-adenosine], which “Sleep prolonging rate (%)” value is on record?
**A.** 80%

**Q.** Which “Sleep prolonging rate (%)” value does the source give for `OC[C@H](Nc1ncnc2c1ncn2[C@@H]1O[C@H](CO)C(O)C1O)[C@@H](O)c1ccccc1` (stereo partly drawn) [Example 41, N^6-[(1S,2S)-2-(1,3-dihydroxy-1-phenyl)-propyl]-adenosine] here?
**A.** 33%

**Q.** `CC[C@H](C)[C@@H](CO)Nc1ncnc2c1ncn2[C@@H]1O[C@H](CO)C(O)C1O` (stereo partly shown) [Example 131, N^6-[(L)-2-(1-hydroxy-3-methyl)-pentyl]-adenosine] was tested. Which “Sleep prolonging rate (%)” value did it give?
**A.** 36%

**Q.** How did the “Sleep prolonging rate (%)” value turn out when `CCCCCCCC(=O)OC[C@H]1O[C@@H](n2cnc3c(NCc4ccc5c(c4)OCO5)ncnc32)[C@H](O)[C@@H]1O` [Example 32, N^6-(3,4-methylenedioxybenzyl)-adenosine-5′-caprylate] was run?
**A.** 26%

**Q.** How did the “Sleep prolonging rate (%)” value turn out when `CC(Nc1ncnc2c1ncn2[C@@H]1O[C@H](CO)[C@@H](O)[C@H]1O)c1ccc(O)cc1` (mixture of isomers) [Example 47, N^6-[(±)-1-(4-hydroxyphenyl)-ethyl]-adenosine] was run?
**A.** 50%

**Q.** How did the “Sleep prolonging rate (%)” value turn out when `OC[C@H]1O[C@@H](n2cnc3c(N[C@H](CO)[C@H](O)c4ccccc4)ncnc32)C(O)C1O` (stereo partly drawn) [Example 42, N^6-[(1R,2R)-2-(1,3-dihydroxy-1-phenyl)-propyl]-adenosine] was run?
**A.** 4%

**Q.** `OCC(CO)Nc1ncnc2c1ncn2[C@@H]1O[C@H](CO)C(O)C1O` (stereo partly shown) [Example 129, N^6-[2-(1,3-dihydroxy)-propyl]-adenosine] was tested. Which “Sleep prolonging rate (%)” value did it give?
**A.** 184%
